Consider five compounds from ChEMBL document CHEMBL5215005, “Discovery of Efrotomycin Congeners and Heterologous Expression-Based Insights into the Self-Resistance Mechanism” (2022).

Holding throughout (format): functional
Experiment [1] relates to Streptomyces lividans. In words: Antibacterial activity against Streptomyces lividans SBT18 assessed as inhibition zone at 10 ug incubated for 2 days by disc diffusion assay. The settings on record: SBT18, 48 h, time 2 day, read-out: IZ.
Experiment [2] concerns Micrococcus luteus. The experiment can be described thus: Antibacterial activity against Micrococcus luteus SCSIO ML01 by Mueller-Hinton broth microdilution method.
Experiment [3] has as its system Streptomyces coelicolor. In words: Antibacterial activity against Streptomyces coelicolor YF11 assessed as inhibition zone at 10 ug incubated for 2 days by disc diffusion assay. To be noted: YF11, 48 h, time 2 day, read-out: IZ.
Experiment [4] has as its system Streptomyces albus. The experiment can be described thus: Antibacterial activity against Streptomyces albus Del14 assessed as inhibition zone at 10 ug incubated for 2 days by disc diffusion assay. The settings on record: Del14, 48 h, time 2 day, read-out: IZ.

Converted amounts (≈) assume the structure as drawn.

For the compound `C/C=C\C=C\[C@@H]1O[C@](O)([C@H](CC)C(=O)NC/C=C/C=C(\C)[C@@H](OC)[C@@H](C)[C@H](O)[C@@H](O)\C=C/C=C/C=C/C=C(\C)C(=O)c2c(O)ccn(C)c2=O)[C@H](O)[C@H](O)C1(C)C`, the figures for the zone of inhibition at 10 µg/disc in experiment [1], in experiment [3] and in experiment [4] were 8 mm, 8 mm and 15 mm, respectively. Inhibition of growth in experiment [2] (MIC) required 8 µg/mL (≈ 10.1 µM).
With `C/C=C\C=C\[C@@H]1O[C@](O)([C@H](CC)C(=O)NC/C=C/C=C(\C)[C@@H](OC)[C@@H](C)[C@H](O)[C@@H](O)/C=C/C=C/C=C/C=C(\C)C(=O)c2c(O)ccn(C)c2=O)[C@H](O)[C@H](O[C@H]2O[C@@H](C)[C@H](O[C@@H]3O[C@@H](C)[C@H](O)[C@@H](O)[C@H]3OC)[C@H](OC)[C@@H]2O)C1(C)C`, in experiment [2], the minimum inhibitory concentration (MIC) stood at 8 µg/mL (≈ 7.17 µM). Besides, in experiment [4], the zone of inhibition at 10 µg/disc stood at 15 mm.
The like results for `C/C=C\C=C\[C@@H]1O[C@](O)([C@@H](CC)C(=O)NC/C=C/C=C(\C)[C@H](OC)[C@H](C)[C@@H]2O[C@H](/C=C/C=C/C=C(\C)C(=O)c3c(O)ccn(C)c3=O)[C@@H](O)[C@H]2O)[C@H](O)[C@H](O[C@H]2O[C@@H](C)[C@H](O[C@@H]3O[C@@H](C)[C@H](O)[C@@H](O)[C@H]3OC)[C@H](OC)[C@@H]2O)C1(C)C` were, in that order, 8 µg/mL (≈ 7.07 µM) and 15 mm.
`C/C=C\C=C\[C@@H]1O[C@](O)([C@H](CC)C(=O)NC/C=C/C=C(\C)[C@@H](OC)[C@@H](C)[C@H](O)[C@@H](O)\C=C/C=C/C=C/C=C(\C)C(=O)c2c(O)ccn(C)c2=O)[C@H](O)[C@H](O[C@H]2O[C@@H](C)[C@H](O[C@@H]3O[C@@H](C)[C@H](O)[C@@H](O)[C@H]3OC)[C@H](OC)[C@@H]2O)C1(C)C`: the results for the zone of inhibition at 10 µg/disc in experiment [1], in experiment [3] and in experiment [4] were 8 mm, 8 mm and 15 mm, respectively. In experiment [2], this compound came in with an MIC of 8 µg/mL (≈ 7.17 µM).
Compound `C/C=C\C=C\[C@@H]1O[C@](O)([C@@H](CC)C(=O)NC/C=C/C=C(\C)[C@H](OC)[C@H](C)[C@@H]2O[C@H](/C=C/C=C/C=C(\C)C(=O)c3c(O)ccn(C)c3=O)[C@H](O)[C@H]2O)[C@H](O)[C@H](O[C@H]2O[C@@H](C)[C@H](O[C@@H]3O[C@@H](C)[C@H](O)[C@@H](O)[C@H]3OC)[C@H](OC)[C@@H]2O)C1(C)C` showed an MIC in experiment [2] of 8 µg/mL (≈ 7.07 µM). In experiment [4], the zone of inhibition at 10 µg/disc came out at 15 mm.
